One series deals with recombinant p300 (Homo sapiens (Human), UniProt Q09472). In words: HAT activity inhibition experiment (SensoLyte HAT(p300) Assay Kit). To be noted: recombinant p300, histone H3 peptide, acetyl CoA. The class given is biochemical. The protocol:
The HAT activity inhibitory ability of HAT inhibitors was evaluated using SensoLyte HAT(p300) Assay Kit (ANASPEC, AS-72172). Specifically, 7.5 μL of the compound of Examples […] diluted with assay buffer was added to 7.5 μL of recombinant p300 solution diluted 10 times with assay buffer, and the mixture was incubated at room temperature for 10 minutes. 7.5 μL of acetyl CoA solution diluted 10 times with assay buffer and 15 μL of histone H3 peptide diluted 10 times with assay buffer were added thereto, and the mixture was incubated at 37° C. for 30 minutes. 37.5 μL of Stop Solution was added to stop the reaction. 75 μL of p300 Developer solution diluted 50 times with assay buffer was added, and the mixture was incubated at room temperature for 30 minutes under light-shielded conditions. The fluorescence at 513 nm when irradiated with 389 nm excitation light was measured using a multiplate reader.

A short description of another series: Solubility test. The class given is physicochemical. Particulars: for solubility: aqueous buffer, thermodynamic from solid. The protocol: The solubility was measured for Examples 7, 10, 20, 23, 24, and 30 to 34, Comparative Example 1, and Comparative Example 2. The test compound was added to 10 mmol/L glycine buffer (pH 2.0) and 10 mmol/L citrate buffer (pH 3.0), and the mixture was stored in a thermostatic chamber at 5° C. After standing overnight, the mixture was filtered through a membrane filter, and the concentration of the filtrate was measured by HPLC.

Series [1] can be described thus: Membrane permeability test (PAMPA). Type of series: in vitro ADME. As to the method: The membrane permeability of the test compound was tested by parallel artificial membrane permeability assay (PAMPA) as follows. 200 μL of System solution (pION Inc.) containing the test compound and 4 μL of GIT Lipid-0 (pION Inc.) were added to the donor plate. 200 μL of Acceptor Sink Buffer (pION Inc.) was added to the acceptor plate. Both plates were overlapped and incubated at 37° C. for 4 hours, after which the UV of the solutions on the acceptor side and donor side was measured using a UV plate reader (190-500 nm). Compounds with poor UV absorption were measured using LC-MS. The permeability coefficient Pe (10^−6 cm/sec) of the drug was calculated using the following equation.

A further series deals with G-401 cells. As to the kind of experiment: Cell proliferation inhibition experiment using G-401 cells. The class given is cell-based. To be noted: Homo sapiens, 72 h, cultured for 3 days, CellTiter-Glo. As to the method: G-401 cells (derived from malignant rhabdoid tumor) were obtained from the American Type Culture Collection (ATCC). G-401 cells were cultured in McCoy's 5A medium containing 10% fetal bovine serum and 1% penicillin/streptomycin under conditions of 37° C. and 5% CO2.
500 cells per well were seeded in a 384-well plate. One day after seeding, Examples 1 to 35 were added so that the final concentration of DMSO was 0.1%, and the cells were cultured for 3 days. After the culture was completed, the cell viability was measured using CellTiter-Glo Luminescent Cell Viability Assay (Promega, G7570).

Another series relates to Kuramochi cells. In words: Cell proliferation inhibition experiment using Kuramochi cells. Type of series: cell-based. Particulars: 144 h, cultured for 6 days, CellTiter-Glo. The protocol:
Kuramochi cells (derived from ovarian cancer) were obtained from JCRB (Japanese Collection of Research Bioresources) cell bank. Kuramochi cells were cultured in RPMI-1640 medium containing 10% fetal bovine serum and 1% penicillin/streptomycin under conditions of 37° C. and 5% CO2.
500 cells per well were seeded in a 384-well plate. One day after seeding, Examples 3, 7, 9, 10, 11, 20, 23 to 25, and 30 to 34 were added so that the final concentration of DMSO was 0.1%, and the cells were cultured for 6 days. After the culture was completed, the cell viability was measured using CellTiter-Glo Luminescent Cell Viability Assay (Promega, G7570).

For a further series, the system named is G-401 xenograft. In words: Drug efficacy evaluation by intravenous administration using G-401 xenograft mice model. The class given is in vivo. The protocol:
G-401 cells (ATCC) were intradermally transplanted into 4-7-week-old BALB/cAnNCrj-nu/nu mice (CAnN.Cg-Foxn1/CrlCrlj, Jackson Laboratory Japan) at 5×10^5 cells/mouse. After confirming the engraftment of G-401 cells 10-40 days after transplantation, the test compound suspended in a solvent such as 10 mmol/L glycine buffer solution (pH 2.0) was administered via the tail vein at least once a week at a dose of 0.015-20 mg/kg. The tumor volume was measured over time from the start of administration, and the effect of tumor volume reduction by administration of the test compound was evaluated. The tumor volume can be calculated from the following equation using the minor axis and major axis of the tumor measured with an electronic caliper (Mitutoyo).
A control administration group administered with only a solvent such as 10 mmol/L glycine buffer solution (pH 2.0) and a test compound administration group were compared, and the antitumor effect was evaluated by calculating T/C from the following equation.

The mark [2] stands for this setting: 10 mmol/L citrate buffer (pH 3.0), 5° C., overnight, read-out: Solubility in pH 3.0 buffer.
[3] abbreviates: 10 mmol/L glycine buffer (pH 2.0), 5° C., overnight, read-out: Solubility in pH 2.0 buffer.
Setting [4] is: pH 5.0, 37° C., read-out: pH 5.0 Pe.
[5] abbreviates: pH 7.4, 37° C., read-out: pH 7.4 Pe.

The source of these data is patent US20250257055A1, “TERTIARY AMIDE DERIVATIVES SUBSTITUTED WITH 4-MEMBERED RING STRUCTURE” (Sumitomo Pharma Co., Ltd., priority 2024, published 2025).

Structures are written as SMILES. Values after ≈ are worked out from the molar mass of the structure shown. Where two headings read alike, the source gives them in different places.

Sequence of recombinant p300 (Q09472 whole entry): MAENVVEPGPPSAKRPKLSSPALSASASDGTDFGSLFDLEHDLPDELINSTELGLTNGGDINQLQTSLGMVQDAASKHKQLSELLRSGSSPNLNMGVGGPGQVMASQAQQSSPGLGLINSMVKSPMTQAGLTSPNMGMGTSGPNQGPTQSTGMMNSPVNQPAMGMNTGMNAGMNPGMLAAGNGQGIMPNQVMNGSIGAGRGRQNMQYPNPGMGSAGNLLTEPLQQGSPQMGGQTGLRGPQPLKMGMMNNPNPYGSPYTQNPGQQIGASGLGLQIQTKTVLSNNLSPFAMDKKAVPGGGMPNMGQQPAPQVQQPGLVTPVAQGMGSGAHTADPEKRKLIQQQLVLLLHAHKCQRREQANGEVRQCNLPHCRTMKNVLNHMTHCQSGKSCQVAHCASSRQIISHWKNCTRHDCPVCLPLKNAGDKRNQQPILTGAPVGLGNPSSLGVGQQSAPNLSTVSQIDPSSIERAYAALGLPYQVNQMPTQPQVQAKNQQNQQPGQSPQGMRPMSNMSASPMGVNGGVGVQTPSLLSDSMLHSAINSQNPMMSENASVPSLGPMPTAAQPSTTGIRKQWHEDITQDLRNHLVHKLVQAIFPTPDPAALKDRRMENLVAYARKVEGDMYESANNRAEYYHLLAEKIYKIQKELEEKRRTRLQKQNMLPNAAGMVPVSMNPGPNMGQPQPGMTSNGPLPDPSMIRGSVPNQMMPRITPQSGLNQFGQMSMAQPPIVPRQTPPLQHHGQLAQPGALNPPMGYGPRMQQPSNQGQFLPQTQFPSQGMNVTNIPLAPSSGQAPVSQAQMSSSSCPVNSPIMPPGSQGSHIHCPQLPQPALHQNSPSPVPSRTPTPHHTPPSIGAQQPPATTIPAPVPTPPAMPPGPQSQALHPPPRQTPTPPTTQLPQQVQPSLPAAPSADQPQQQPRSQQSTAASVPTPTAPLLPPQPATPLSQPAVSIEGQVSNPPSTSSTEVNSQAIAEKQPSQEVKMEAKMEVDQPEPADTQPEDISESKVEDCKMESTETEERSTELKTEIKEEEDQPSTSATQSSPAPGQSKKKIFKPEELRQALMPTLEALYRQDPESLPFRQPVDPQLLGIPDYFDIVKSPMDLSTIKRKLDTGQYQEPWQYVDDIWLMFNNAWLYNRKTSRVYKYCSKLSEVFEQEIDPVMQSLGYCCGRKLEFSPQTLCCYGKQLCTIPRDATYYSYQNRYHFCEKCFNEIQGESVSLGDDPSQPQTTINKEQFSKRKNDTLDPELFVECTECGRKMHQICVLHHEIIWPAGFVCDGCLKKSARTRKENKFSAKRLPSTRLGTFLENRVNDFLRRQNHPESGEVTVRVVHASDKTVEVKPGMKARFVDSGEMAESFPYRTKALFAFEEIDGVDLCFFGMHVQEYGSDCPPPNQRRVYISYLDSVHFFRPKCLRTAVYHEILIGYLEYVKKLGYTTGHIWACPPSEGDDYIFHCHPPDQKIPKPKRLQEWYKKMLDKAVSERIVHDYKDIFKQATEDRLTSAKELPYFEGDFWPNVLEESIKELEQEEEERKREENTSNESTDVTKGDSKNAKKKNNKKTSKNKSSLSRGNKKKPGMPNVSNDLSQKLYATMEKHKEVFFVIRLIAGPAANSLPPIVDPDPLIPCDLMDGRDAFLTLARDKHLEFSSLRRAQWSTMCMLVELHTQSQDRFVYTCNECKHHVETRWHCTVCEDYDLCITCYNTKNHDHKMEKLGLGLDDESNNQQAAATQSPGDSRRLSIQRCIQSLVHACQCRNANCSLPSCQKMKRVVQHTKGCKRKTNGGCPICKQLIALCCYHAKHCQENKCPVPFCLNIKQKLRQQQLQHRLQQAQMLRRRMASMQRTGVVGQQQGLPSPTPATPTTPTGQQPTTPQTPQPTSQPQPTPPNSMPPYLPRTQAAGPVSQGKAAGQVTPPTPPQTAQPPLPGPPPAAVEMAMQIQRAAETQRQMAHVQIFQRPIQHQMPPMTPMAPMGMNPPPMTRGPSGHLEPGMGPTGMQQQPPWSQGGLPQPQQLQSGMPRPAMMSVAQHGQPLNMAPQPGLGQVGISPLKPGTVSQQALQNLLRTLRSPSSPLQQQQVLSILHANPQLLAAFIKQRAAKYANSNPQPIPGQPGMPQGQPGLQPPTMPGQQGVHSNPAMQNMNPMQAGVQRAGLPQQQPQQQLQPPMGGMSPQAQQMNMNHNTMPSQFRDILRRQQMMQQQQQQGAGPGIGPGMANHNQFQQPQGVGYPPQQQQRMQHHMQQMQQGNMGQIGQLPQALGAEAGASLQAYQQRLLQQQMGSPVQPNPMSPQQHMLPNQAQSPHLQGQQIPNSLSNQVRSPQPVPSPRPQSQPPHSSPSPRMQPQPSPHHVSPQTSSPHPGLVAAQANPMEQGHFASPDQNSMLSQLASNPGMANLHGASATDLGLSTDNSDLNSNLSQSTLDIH

As to `CC(C)n1cc(-c2ccc3c(c2)[C@H](F)C[C@]32NC(=O)N(CC(=O)N(Cc3ccc(F)cn3)C3(C(F)(F)F)CN(C)C3)C2=O)cn1` [Example 33, 2-{(1′S,3′R)-3′-fluoro-2,5-dioxo-5′-[1-(propan-2-yl)-1H-pyrazol-4-yl]-2′,3′-dihydrospiro[imidazolidine-4,1′-inden]-1-yl}-N-[(5-fluoropyridin-2-yl)methyl]-N-[1-methyl-3-(trifluoromethyl)azetidin-3-yl]acetamide], the IC50 on recombinant p300 was 0.2 nM; in the series with G-401 cells it was 4 nM; in the series on Kuramochi cells, 24 nM. Besides, the solubility in “Solubility test” (setting [2]) is 8600 µg/mL (≈ 13.6 mM); in the series “Solubility test” (setting [3]) it was greater than 10000 µg/mL. In addition, the values for the Papp at 4 h in series [1] (setting [4]) and in series [1] (setting [5]) were 22.6 ×10⁻⁶ cm/s and 27 ×10⁻⁶ cm/s, respectively.

Consider `CCn1cc(-c2ccc3c(c2)[C@H](F)C[C@]32NC(=O)N(CC(=O)N(Cc3ccc(F)cc3)C3(C(F)(F)F)CN(C)C3)C2=O)cn1` [Example 30, 2-[(1′S,3′R)-5′-(1-ethyl-1H-pyrazol-4-yl)-3′-fluoro-2,5-dioxo-2′,3′-dihydrospiro[imidazolidine-4,1′-inden]-1-yl]-N-[(4-fluorophenyl)methyl]-N-[1-methyl-3-(trifluoromethyl)azetidin-3-yl]acetamide], for which the IC50 is 1.5 nM on recombinant p300, 2 nM with G-401 cells and 10 nM in the series on Kuramochi cells. Moreover, the solubility in “Solubility test” (setting [2]) was 1700 µg/mL (≈ 2.76 mM); in the series “Solubility test” (setting [3]) it was 8800 µg/mL (≈ 14.3 mM). For the same molecule, the Papp at 4 h is 30.6 ×10⁻⁶ cm/s in series [1] (setting [4]) and 35 ×10⁻⁶ cm/s in series [1] (setting [5]).

Take `CN1CC(N(Cc2ccc(F)cn2)C(=O)CN2C(=O)N[C@]3(C[C@@H](F)c4cc(-c5cnn(C6CCC6)c5)ccc43)C2=O)(C(F)(F)F)C1` [Example 34, 2-[(1′S,3′R)-5′-(1-cyclobutyl-1H-pyrazol-4-yl)-3′-fluoro-2,5-dioxo-2′,3′-dihydrospiro[imidazolidine-4,1′-inden]-1-yl]-N-[(5-fluoropyridin-2-yl)methyl]-N-[1-methyl-3-(trifluoromethyl)azetidin-3-yl]acetamide]: the half-inhibitory concentration (IC50) on recombinant p300 came out at 0.2 nM; in the series with G-401 cells it was 5 nM; in the series with Kuramochi cells it was 45 nM. The solubility in “Solubility test” (setting [2]) was 8100 µg/mL (≈ 12.6 mM); in “Solubility test” (setting [3]), greater than 10000 µg/mL. The results for the Papp at 4 h in series [1] (setting [4]) and in series [1] (setting [5]) were 24.4 ×10⁻⁶ cm/s and 34.9 ×10⁻⁶ cm/s, respectively.

`CNC(=O)Cn1cc(-c2ccc3c(c2)[C@H](F)C[C@]32NC(=O)N(CC(=O)N(Cc3ccc(F)cc3)[C@@H](C)C(F)(F)F)C2=O)cn1` [Comparative Example 1, reference compound]: in the series with G-401 xenograft (G-401 xenograft model, intravenous administration), the “antitumor effect (in words)” value is “no antitumor effect”. Besides, the T/C in the series with G-401 xenograft (intravenous (tail vein), 0.015 mg/kg, 14 days) is reported as −1.1%. Besides, the “Solubility in pH 3.0 buffer” value in the series “Solubility test” (10 mmol/L citrate buffer (pH 3.0), 5° C., overnight) amounted to 0.005 mg/mL. Also, the “Solubility in pH 2.0 buffer” value in “Solubility test” (10 mmol/L glycine buffer (pH 2.0), 5° C., overnight) worked out at 0.002 mg/mL. Moreover, the figures for the solubility in “Solubility test” (setting [2]) and in “Solubility test” (setting [3]) were 5 µg/mL (≈ 0.00808 mM) and 2 µg/mL (≈ 0.00323 mM), respectively. For the same molecule, in the series “Solubility test” (pH 2.0 and pH 3.0 buffers), the “solubility (in words)” value is “extremely low solubility”. For the same molecule, the Papp at 4 h in series [1] (setting [4]) was 21.3 ×10⁻⁶ cm/s; in series [1] (setting [5]), 20.8 ×10⁻⁶ cm/s.

Turning to `CCn1cc(-c2ccc3c(c2)[C@H](F)C[C@]32NC(=O)N(CC(=O)N(Cc3ccc(F)cn3)C3(C(F)(F)F)CN(C)C3)C2=O)cn1` [Example 32, 2-[(1′S,3′R)-5′-(1-ethyl-1H-pyrazol-4-yl)-3′-fluoro-2,5-dioxo-2′,3′-dihydrospiro[imidazolidine-4,1′-inden]-1-yl]-N-[(5-fluoropyridin-2-yl)methyl]-N-[1-methyl-3-(trifluoromethyl)azetidin-3-yl]acetamide], the IC50 on recombinant p300 was determined as 0.4 nM; in the series on G-401 cells, 5 nM; with Kuramochi cells it was 53 nM. Further, the solubility in the series “Solubility test” (setting [2]) and in “Solubility test” (setting [3]) was greater than 10000 µg/mL each time. In addition, the Papp at 4 h in series [1] (setting [4]) came out at 15.4 ×10⁻⁶ cm/s; in series [1] (setting [5]), 26.6 ×10⁻⁶ cm/s.

As to `CC(C)n1cc(-c2ccc3c(c2)[C@H](F)C[C@]32NC(=O)N(CC(=O)N(Cc3ccc(F)cc3)C3(C(F)(F)F)CN(C)C3)C2=O)cn1` [Example 31, 2-{(1′S,3′R)-3′-fluoro-2,5-dioxo-5′-[1-(propan-2-yl)-1H-pyrazol-4-yl]-2′,3′-dihydrospiro[imidazolidine-4,1′-inden]-1-yl}-N-[(4-fluorophenyl)methyl]-N-[1-methyl-3-(trifluoromethyl)azetidin-3-yl]acetamide], the IC50 came to 1 nM at recombinant p300, 1 nM with G-401 cells and 8 nM in the series on Kuramochi cells. Also, the figures for the solubility in “Solubility test” (setting [2]) and in “Solubility test” (setting [3]) were 1400 µg/mL (≈ 2.22 mM) and 7100 µg/mL (≈ 11.3 mM), respectively. The Papp at 4 h was 31.3 ×10⁻⁶ cm/s in series [1] (setting [4]) and 34.9 ×10⁻⁶ cm/s in series [1] (setting [5]).
